Assay results: patent US12247015B2, “3-amino-4H-benzo[e][1,2,4]thiadiazine 1,1-dioxide derivatives as inhibitors of MRGX2” (Solent Therapeutics, LLC, priority 2019, dated 2025)

These compounds were tested against hMRGX2 (CHO-K1 cells overexpressing MRGX2) (Homo sapiens (Human), UniProt Q96LB1) (assay: In vitro inhibition (EC50) of intracellular calcium flux, FLIPR Tetra, substance P stimulation). Settings: stimulated with MRGX2 ligand substance P, FLIPR Calcium 5, read-out: hMRGX2 Cellular Potency (pEC50) (converted).
Type: cell-based
Summary of the method: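 CHO-K1 cells overexpressing human MRGX2, loaded with Calcium 5 dye for 30 min at 37 °C, then given compound (11-point, top 10 μM).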

Sequence of hMRGX2 (CHO-K1 cells overexpressing MRGX2) (Q96LB1 whole entry): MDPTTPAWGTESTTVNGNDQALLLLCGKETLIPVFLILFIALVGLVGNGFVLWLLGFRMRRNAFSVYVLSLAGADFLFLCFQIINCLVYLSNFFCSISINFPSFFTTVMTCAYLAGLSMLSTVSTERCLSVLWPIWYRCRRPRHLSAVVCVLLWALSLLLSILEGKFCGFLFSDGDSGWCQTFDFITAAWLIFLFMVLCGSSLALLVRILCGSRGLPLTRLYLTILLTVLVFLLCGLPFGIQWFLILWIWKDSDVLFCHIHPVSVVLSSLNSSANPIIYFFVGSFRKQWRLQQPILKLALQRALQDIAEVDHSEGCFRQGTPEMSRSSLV

Structure (SMILES)	EC50 [µM]
Cc1coc(CNC2=NS(=O)(=O)c3cccc(-c4cccc(F)c4Cl)c3N2)n1 [Example 30, 5-(2-chloro-3-fluorophenyl)-3-(((4-methyloxazol-2-yl)methyl)amino)-4H-benzo[e][1,2,4]thiadiazine 1,1-dioxide]	0.0286
O=S1(=O)N=C(NCc2ncco2)Nc2c(-c3ccnc(F)c3Cl)cccc21 [Example 48, 5-(3-chloro-2-fluoropyridin-4-yl)-3-((oxazol-2-ylmethyl)amino)-4H-benzo[e][1,2,4]thiadiazine 1,1-dioxide]	0.036
O=S1(=O)N=C(NCCC2CCCO2)Nc2c(-c3cccc(F)c3Cl)cccc21 (stereo not shown) [Example 73, 5-(2-chloro-3-fluorophenyl)-3-((2-(tetrahydrofuran-2-yl)ethyl)amino)-4H-benzo[e][1,2,4]thiadiazine 1,1-dioxide]	0.139
O=S1(=O)N=C(NCCc2ccccn2)Nc2c(-c3cc(F)cc(F)c3)cccc21 [Example 80, 5-(3,5-difluorophenyl)-3-((2-(pyridin-2-yl)ethyl)amino)-4H-benzo[e][1,2,4]thiadiazine 1,1-dioxide]	0.897
COc1ccc(CCNC2=NS(=O)(=O)c3cccc(-c4cccc(F)c4Cl)c3N2)cc1 [Example 72, 5-(2-chloro-3-fluorophenyl)-3-((4-methoxyphenethyl)amino)-4H-benzo[e][1,2,4]thiadiazine 1,1-dioxide]	0.0398
CCNC1=NS(=O)(=O)c2cccc(-c3ccnc(F)c3Cl)c2N1 [Example 52, 5-(3-chloro-2-fluoropyridin-4-yl)-3-(ethylamino)-4H-benzo[e][1,2,4]thiadiazine 1,1-dioxide]	0.131
CC(NC1=NS(=O)(=O)c2cc(F)cc(-c3cccc(F)c3Cl)c2N1)c1nccs1 (stereo not shown) [Example 8, 5-(2-chloro-3-fluorophenyl)-7-fluoro-3-((1-(thiazol-2-yl)ethyl)amino)-4H-benzo[e][1,2,4]thiadiazine 1,1-dioxide]	0.11
CCC(CNC1=NS(=O)(=O)c2cccc(-c3cc(F)cc(F)c3)c2N1)OC (stereo not shown) [Example 87, 5-(3,5-difluorophenyl)-3-((2-methoxybutyl)amino)-4H-benzo[e][1,2,4]thiadiazine 1,1-dioxide]	0.24
Cc1cc(NC2=NS(=O)(=O)c3cccc(-c4cccc(F)c4Cl)c3N2)nn1C(C)C [Example 74, 5-(2-chloro-3-fluorophenyl)-3-((1-isopropyl-5-methyl-1H-pyrazol-3-yl)amino)-4H-benzo[e][1,2,4]thiadiazine 1,1-dioxide]	0.746
CO[C@@H](C)CNC1=NS(=O)(=O)c2cccc(-c3cc(F)cc(F)c3)c2N1 (single isomer, unassigned) [Example 86]	> 50.1
CO[C@@H](C)CNC1=NS(=O)(=O)c2cccc(-c3cccc(F)c3F)c2N1 [Example 25, (S)-5-(2,3-difluorophenyl)-3-((2-methoxypropyl)amino)-4H-benzo[e][1,2,4]thiadiazine 1,1-dioxide]	2.75
COc1cccc(CCNC2=NS(=O)(=O)c3cccc(-c4cccc(F)c4Cl)c3N2)c1 [Example 70, 5-(2-chloro-3-fluorophenyl)-3-((3-methoxyphenethyl)amino)-4H-benzo[e][1,2,4]thiadiazine 1,1-dioxide]	0.0579
Cc1nn(C)cc1-c1cccc2c1NC(NCc1ccc(Cl)cn1)=NS2(=O)=O [Example 59, 3-(((5-chloropyridin-2-yl)methyl)amino)-5-(1,3-dimethyl-1H-pyrazol-4-yl)-4H-benzo[e][1,2,4]thiadiazine 1,1-dioxide]	0.248
O=S1(=O)N=C(NCCF)Nc2c(-c3cccc(F)c3F)cccc21 [Example 21, 5-(2,3-difluorophenyl)-3-((2-fluoroethyl)amino)-4H-benzo[e][1,2,4]thiadiazine 1,1-dioxide]	0.738
O=S1(=O)N=C(NCC(F)F)Nc2c(-c3ccccc3Cl)cccc21 [Example 44, 5-(2-chlorophenyl)-3-((2,2-difluoroethyl)amino)-4H-benzo[e][1,2,4]thiadiazine 1,1-dioxide]	0.186
O=S1(=O)N=C(NCC2CCC2)Nc2c(-c3cccc(F)c3Cl)cccc21 [Example 17, 5-(2-chloro-3-fluorophenyl)-3-((cyclobutylmethyl)amino)-4H-benzo[e][1,2,4]thiadiazine 1,1-dioxide]	0.0207
O=S1(=O)N=C(NCC2CCC2)Nc2c(-c3cc(F)cc(F)c3)cccc21 [Example 81, 3-((cyclobutylmethyl)amino)-5-(3,5-difluorophenyl)-4H-benzo[e][1,2,4]thiadiazine 1,1-dioxide]	0.384
O=S1(=O)N=C(NCCF)Nc2c(-c3cccc(F)c3Cl)cc(F)cc21 [Example 11, 5-(2-chloro-3-fluorophenyl)-7-fluoro-3-((2-fluoroethyl)amino)-4H-benzo[e][1,2,4]thiadiazine 1,1-dioxide]	0.127
COCCNC1=NS(=O)(=O)c2cccc(-c3ccccc3C3CC3)c2N1 [Example 63, 5-(2-cyclopropylphenyl)-3-((2-methoxyethyl)amino)-4H-benzo[e][1,2,4]thiadiazine 1,1-dioxide]	0.953

Other lines, results leading:

EC50 [µM]	Structure (SMILES)
0.106	CC(C)c1ccc(NC2=NS(=O)(=O)c3cccc(C4CC4)c3N2)cc1 [Example 109, 5-cyclopropyl-3-((4-isopropylphenyl)amino)-4H-benzo[e][1,2,4]thiadiazine 1,1-dioxide]
0.0511	O=S1(=O)N=C(NCCF)Nc2c(-c3cccc(F)c3Cl)cccc21 [Example 147, 5-(2-chloro-3-fluorophenyl)-3-((2-fluoroethyl)amino)-4H-benzo[e][1,2,4]thiadiazine 1,1-dioxide]
0.119	CC(C)c1ccc(NC2=NS(=O)(=O)c3cccc(-c4cnn(C5CCC5)c4)c3N2)cc1 [Example 105, 5-(1-cyclobutyl-1H-pyrazol-4-yl)-3-((4-isopropylphenyl)amino)-4H-benzo[e][1,2,4]thiadiazine 1,1-dioxide]
0.34	COC(C)CNC1=NS(=O)(=O)c2cccc(-c3cc(F)cc(F)c3)c2N1 (stereo not shown) [Example 166, 5-(3,5-difluorophenyl)-3-((2-methoxypropyl)amino)-4H-benzo[e][1,2,4]thiadiazine 1,1-dioxide]
0.692	O=S1(=O)N=C(NCC2CC2)Nc2c(-c3cc(F)ccc3F)cccc21 [Example 140, 3-((cyclopropylmethyl)amino)-5-(2,5-difluorophenyl)-4H-benzo[e][1,2,4]thiadiazine 1,1-dioxide]
0.0303	COc1cccnc1CNC1=NS(=O)(=O)c2cccc(-c3cccc(F)c3Cl)c2N1 [Example 122, 5-(2-chloro-3-fluorophenyl)-3-(((3-methoxypyridin-2-yl)methyl)amino)-4H-benzo[e][1,2,4]thiadiazine 1,1-dioxide]
0.106	CC(C)c1ccc(NC2=NS(=O)(=O)c3cccc(C4CCC4)c3N2)cc1 [Example 111, 5-cyclobutyl-3-((4-isopropylphenyl)amino)-4H-benzo[e][1,2,4]thiadiazine 1,1-dioxide]
0.223	O=S1(=O)N=C(NCCCF)Nc2c(-c3cccc(F)c3Cl)cccc21 [Example 152, 5-(2-chloro-3-fluorophenyl)-3-((3-fluoropropyl)amino)-4H-benzo[e][1,2,4]thiadiazine 1,1-dioxide]
0.0536	O=S1(=O)N=C(NC2CC2)Nc2c(-c3cccc(F)c3Cl)cccc21 [Example 159, 5-(2-chloro-3-fluorophenyl)-3-(cyclopropylamino)-4H-benzo[e][1,2,4]thiadiazine 1,1-dioxide]
0.378	CC(C)c1ccc(NC2=NS(=O)(=O)c3cccc(C4CC4)c3N2)cn1 [Example 118, 5-cyclopropyl-3-((6-isopropylpyridin-3-yl)amino)-4H-benzo[e][1,2,4]thiadiazine 1,1-dioxide]
0.289	Cc1cc(-c2cccc3c2NC(Nc2ccc(C(C)C)cc2)=NS3(=O)=O)n[nH]1 [Example 98, 3-((4-isopropylphenyl)amino)-5-(5-methyl-1H-pyrazol-3-yl)-4H-benzo[e][1,2,4]thiadiazine 1,1-dioxide]
0.246	O=S1(=O)N=C(NCc2ccccn2)Nc2c(-c3cc(F)ccc3F)cccc21 [Example 139, 5-(2,5-difluorophenyl)-3-((pyridin-2-ylmethyl)amino)-4H-benzo[e][1,2,4]thiadiazine 1,1-dioxide]
0.141	COC(C)CNC1=NS(=O)(=O)c2cccc(-c3ccccc3C#N)c2N1 (stereo not shown) [Example 145, 2-(3-((2-methoxypropyl)amino)-1,1-dioxido-4H-benzo[e][1,2,4]thiadiazin-5-yl)benzonitrile]
0.0818	CCc1ccccc1-c1cccc2c1NC(NC)=NS2(=O)=O [Example 91, 5-(2-ethylphenyl)-3-(methylamino)-4H-benzo[e][1,2,4]thiadiazine 1,1-dioxide]
0.0457	CC(C)c1ccc(NC2=NS(=O)(=O)c3cccc(-c4cnn(C5COC5)c4)c3N2)cc1 [Example 101, 3-((4-isopropylphenyl)amino)-5-(1-(oxetan-3-yl)-1H-pyrazol-4-yl)-4H-benzo[e][1,2,4]thiadiazine 1,1-dioxide]

Each compound was assayed against human MRGX2 receptor (Homo sapiens (Human), UniProt Q96LB1) (assay: In vitro radioligand binding assay (Kd)). Settings: membrane from SF9 cells overexpressing human MRGX2; 3H-labeled ligand; pH 7.4, room temperature, 60 minutes.
Method: In vitro Radioligand Binding Assay (Kd)
Equilibrium dissociation constants, Kd, for many of the compounds described in the Examples section (“test compounds”) are determined in the presence cellular membrane prepared from SF9 cell lines overexpressing the human MRGX2 receptor. The assay is carried out in a 96-well plate (Greiner V-Bottom #651201). […] The assay mixtures, which comprise MRGX2 receptor, radiolabeled ligand and test compound, are incubated at room temperature (˜22° C.) for 60 minutes to reach equilibrium. After incubation, the assay mixtures are collected on a filter mat (Filtermat A, Perkin Elmer) using a cell harvester (Harvester 96, TOMTEC). The filter mat is completely dried. A solid scintillant (Meltilex, Perkin Elmer) is added to each filter membrane and the level of radioactivity (“Signal”) from each well (assay mixture) is recorded using a scintillation counter (Trilux Microbeta, PerkinElmer). Kd is determined by curve-fitting the dose response data ([I], Signal) for each set of samples to the equation,
[formula] where [I] is the concentration of the test compound. The data are reported as pKd

Sequence of human MRGX2 receptor (Q96LB1 whole entry): as above

hMRGX2 Binding Affinity (pKd)	Structure (SMILES)
6.575	CC(C)c1ccc(NC2=NS(=O)(=O)c3cccc(C4CC4)c3N2)cc1 [Example 109, 5-cyclopropyl-3-((4-isopropylphenyl)amino)-4H-benzo[e][1,2,4]thiadiazine 1,1-dioxide]
6.67	O=S1(=O)N=C(NCCF)Nc2c(-c3cccc(F)c3Cl)cccc21 [Example 147, 5-(2-chloro-3-fluorophenyl)-3-((2-fluoroethyl)amino)-4H-benzo[e][1,2,4]thiadiazine 1,1-dioxide]
6.06	CC(C)c1ccc(NC2=NS(=O)(=O)c3cccc(-c4cnn(C5CCC5)c4)c3N2)cc1 [Example 105, 5-(1-cyclobutyl-1H-pyrazol-4-yl)-3-((4-isopropylphenyl)amino)-4H-benzo[e][1,2,4]thiadiazine 1,1-dioxide]
